Source: US10757937B2, “Sulfonamides that activate ABA receptors” (The Regents of the University of California, priority 2014, dated 2020)
pIC50: −log10 of the molar value. Like-named read-outs stand apart in the source and are kept apart here.

Key:
PYL11 = target: T1, PYL11 (Arabidopsis thaliana, UniProt Q9FJ50); test: receptor-mediated PP2C (HAB1) inhibition in vitro assay; assay type: biochemical; details: Table VII; read-out: PP2C Dose Curves PYL11 (IC50)
T1 construct: made in house; host or cells: E. coli BL21[DE3]pLysS
T1 sequence (Q9FJ50 1-161): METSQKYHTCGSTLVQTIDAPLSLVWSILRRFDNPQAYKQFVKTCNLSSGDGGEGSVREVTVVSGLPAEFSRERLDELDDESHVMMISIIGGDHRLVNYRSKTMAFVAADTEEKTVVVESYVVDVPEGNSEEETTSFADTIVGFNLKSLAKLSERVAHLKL
T1 sequence (Q9CAJ0 23-511 partner): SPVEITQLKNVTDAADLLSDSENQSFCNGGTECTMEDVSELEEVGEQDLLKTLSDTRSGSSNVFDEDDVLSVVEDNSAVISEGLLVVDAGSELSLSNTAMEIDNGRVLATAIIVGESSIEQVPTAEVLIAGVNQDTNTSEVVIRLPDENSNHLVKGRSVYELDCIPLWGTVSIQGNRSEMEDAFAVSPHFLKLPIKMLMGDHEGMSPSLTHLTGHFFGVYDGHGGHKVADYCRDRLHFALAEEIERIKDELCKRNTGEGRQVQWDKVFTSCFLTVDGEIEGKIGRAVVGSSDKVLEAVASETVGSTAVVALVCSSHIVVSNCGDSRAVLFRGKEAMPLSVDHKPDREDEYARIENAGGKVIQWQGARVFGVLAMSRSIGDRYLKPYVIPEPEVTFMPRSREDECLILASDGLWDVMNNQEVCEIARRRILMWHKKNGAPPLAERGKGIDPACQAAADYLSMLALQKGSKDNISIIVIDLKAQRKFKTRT
Description: (§1) A family of 62 structurally related N-acyl sulfonamides (Tables I-V) were tested for ABA agonist activity using multiple receptor-mediated PP2C inhibition in vitro assays (Park et al., 2009). […] The constructs utilized for protein expression have been previously described (Okamoto et al. 2013). For constructs encoding 6X-His-fusion proteins (all receptors except PYL11), the coding sequences were of the receptors were cloned in the vector pET28, expressed in BL21[DE3]pLysS E. coli host cells at 18° C. overnight, and subsequently purified from sonicated lysates using Ni-NTA agarose (Qiagen, USA), according to the manufacturer's instructions. PYL11 was constructed as a maltose binding protein fusion in the vector pMAL-c, expressed in BL21┌DE3┐pLysS host cells and purified using amylose resin (New England Biolabs) as described by the manufacturer. Recombinant GST-HAB1 was expressed and purified as described previously (Park et al., 2009). PP2C activity assays were conducted using the fluorogenic phosphatase substrate 4-methylumbelliferyl-phosphate. Recombinant receptors and HAB1 were used to examine ligand-induced PP2C inactivation in response to multiple test compounds. Enzyme inhibition assays were conducted using the following assay conditions: 50 nM GST-PP2C, 100 mM Tris-OAc (pH 7.9), 100 mM NaCl, 1 mM MnCl2, 1% β-mercaptoethanol. […] Because of this, the ratio of each receptor used in the PP2C-inhibitions assays was established empirically as the minimum fold-excess of receptor required to elicit maximal PP2C inhibition at a saturating ABA concentration (10 μM).
(§2) Based on this criterion, we used a ratio of 2:1 receptor in the assays described herein.
(§3) Using the above assay conditions, compounds were tested at 25 μM for agonist activity on PYL4, PYL5, PYL8 and PYL9. […] Consequently, a subset of the compounds was tested at multiple concentrations against 11 receptors so that IC50 values and receptor selectivity profiles could be examined. […] Thus, the N-acylsulfonamide agonists disclosed are selective for monomeric receptors.
(§4) Additional compounds were tested for biological activity following the procedures of Example 1 with minor modifications.
(§5) For these in vitro receptor assays, the compounds listed were tested in in vitro PP2C inhibition assays with 50 uM of the test compound except for ABA (10 uM). IC50s were calculated from dose curves, but only for selected compounds.

PYL4 = target: T2, PYL4 (Arabidopsis thaliana, UniProt O80920); test: as above; assay type: biochemical; details: compound at 25 μM; control without agonist = 100%
T2 construct: 6X-His; made in house; host or cells: E. coli BL21[DE3]pLysS
T2 sequence (O80920 1-207): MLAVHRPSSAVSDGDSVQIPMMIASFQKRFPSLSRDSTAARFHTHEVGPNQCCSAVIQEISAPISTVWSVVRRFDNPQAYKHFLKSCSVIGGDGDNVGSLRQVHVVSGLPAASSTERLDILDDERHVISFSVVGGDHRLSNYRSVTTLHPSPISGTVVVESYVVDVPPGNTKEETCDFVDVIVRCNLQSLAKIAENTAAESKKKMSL
T2 sequence (Q9CAJ0 23-511 partner): T1 sequence (Q9CAJ0 23-511 partner)
Description: as §1, §2, §3, §4, §5

PYL5 = target: T3, PYL5 (Arabidopsis thaliana, UniProt Q9FLB1); test: as above; assay type: biochemical; details: for remaining activity at 25 µM / PP2C Activity (25 μm) PYL5: compound at 25 μM, control without agonist = 100%
T3 construct: 6X-His; made in house; host or cells: E. coli BL21[DE3]pLysS
T3 sequence (Q9FLB1 1-203): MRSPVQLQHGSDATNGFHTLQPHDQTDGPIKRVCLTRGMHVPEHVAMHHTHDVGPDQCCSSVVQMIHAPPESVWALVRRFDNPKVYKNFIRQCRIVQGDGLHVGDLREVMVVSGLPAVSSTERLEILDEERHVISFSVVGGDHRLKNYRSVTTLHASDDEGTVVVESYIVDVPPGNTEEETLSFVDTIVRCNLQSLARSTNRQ
T3 sequence (Q9CAJ0 23-511 partner): T1 sequence (Q9CAJ0 23-511 partner)
Description: as §1, §2, §3, §4, §5

PYL6 = target: T4, PYL6 (Arabidopsis thaliana, UniProt Q8S8E3); test: as above; assay type: biochemical; details: Table VII; read-out: PP2C Dose Curves PYL6 (IC50)
T4 construct: 6X-His; made in house; host or cells: E. coli BL21[DE3]pLysS
T4 sequence (Q8S8E3 1-215): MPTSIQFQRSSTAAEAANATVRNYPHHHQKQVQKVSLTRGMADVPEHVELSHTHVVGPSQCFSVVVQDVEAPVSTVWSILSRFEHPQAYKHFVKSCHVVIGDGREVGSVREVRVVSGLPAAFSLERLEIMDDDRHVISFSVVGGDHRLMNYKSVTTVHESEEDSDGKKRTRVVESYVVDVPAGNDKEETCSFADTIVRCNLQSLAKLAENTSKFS
T4 sequence (Q9CAJ0 23-511 partner): T1 sequence (Q9CAJ0 23-511 partner)
Description: as §1, §2, §3, §4, §5

PYL8 = target: T5, PYL8 (Arabidopsis thaliana, UniProt Q9FGM1); test: as above; assay type: biochemical; details: for remaining activity at 25 µM / PP2C Activity (25 μm) PYL8: compound at 25 μM, control without agonist = 100%
T5 construct: 6X-His; made in house; host or cells: E. coli BL21[DE3]pLysS
T5 sequence (Q9FGM1 1-188): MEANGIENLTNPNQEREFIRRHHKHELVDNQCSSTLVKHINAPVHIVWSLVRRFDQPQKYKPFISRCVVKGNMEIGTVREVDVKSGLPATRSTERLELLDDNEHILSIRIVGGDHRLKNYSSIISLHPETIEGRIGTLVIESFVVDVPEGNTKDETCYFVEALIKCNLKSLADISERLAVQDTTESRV
T5 sequence (Q9CAJ0 23-511 partner): T1 sequence (Q9CAJ0 23-511 partner)
Description: as §1, §2, §3, §4, §5

PYL9 = target: T6, PYL9 (Arabidopsis thaliana, UniProt Q84MC7); test: as above; assay type: biochemical; details: for remaining activity at 25 µM / PP2C Activity (25 μm) PYL9: compound at 25 μM, control without agonist = 100%
T6 construct: 6X-His; made in house; host or cells: E. coli BL21[DE3]pLysS
T6 sequence (Q84MC7 1-187): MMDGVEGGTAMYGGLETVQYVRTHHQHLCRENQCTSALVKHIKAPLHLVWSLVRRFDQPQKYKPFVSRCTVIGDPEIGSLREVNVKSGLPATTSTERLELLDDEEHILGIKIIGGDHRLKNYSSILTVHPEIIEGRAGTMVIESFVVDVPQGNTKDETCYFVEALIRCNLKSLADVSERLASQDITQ
T6 sequence (Q9CAJ0 23-511 partner): T1 sequence (Q9CAJ0 23-511 partner)
Description: as §1, §2, §3, §4, §5

[1] = tested on: Arabidopsis seed germination and hypocotyl growth; test: Arabidopsis seed germination and hypocotyl growth; assay type: in vivo; details: − = none; for minimal effective concentration: Table VIII, tested at 10 or 50 μM, lowest inhibiting concentration, read-out: Hypocotyl Growth Inhibition; for Hypocotyl Growth Inhibition: Germination Inhibition II, tested at 10 and 50 uM, lowest concentration that inhibited hypocotyl growth in wells where seeds germinated
Description: We germinated seeds from wild type on ½× strength Murashige and Skoog salts growth medium containing either 10 or 50 μM for all 62 compounds as well as 1 μM (+)-ABA and mock controls. […] To investigate if the any of the compounds are sufficient to control vegetative ABA responses, we treated three week old Arabidopsis plants with aqueous solutions containing 0.02% Silwet and either 50 μM of selected N-acylsulfonamides, 50 μM ABA or 0.1% DMSO (the carrier solvent for the compounds tested). The leaf temperatures were subsequently examined using a thermal imaging camera 24 hours after treatment. It is well known that ABA-induced guard cell closure reduces transpiration, which leads to increases in leaf temperatures. It has been estimated that a 1° C. increase in leaf temperature correlates with a decrease in transpiration rates by approximately 50% (Sirault et al., 2009). Since guard cell aperture is the primary determinant of transpiration rates, thermal imaging is a useful way to indirectly infer relative transpiration rates and, indirectly, relative degrees of guard cell opening at the whole plant level.
as §4
For the germination inhibition experiment, the compounds were tested at 10 and 50 uM. The amounts shown are the lowest of the two concentrations that either inhibited germination or hypocotyl growth in wells where seeds germinated.
For the germination test, the compounds were tested at 1, 5, 10, 25 and 50 uM. The amounts shown are the lowest of the concentrations that either inhibited germination or hypocotyl growth in the wells where seeds germinated.

Structure (SMILES)	pIC50 (PYL11)	remaining activity at 25 µM (PYL4) [%]	pIC50 (PYL5; Table VII, read-out: PP2C Dose Curves PYL5 (IC50))	remaining activity at 25 µM (PYL5) [%]	pIC50 (PYL6)	pIC50 (PYL8; Table VII, read-out: PP2C Dose Curves PYL8 (IC50))	remaining activity at 25 µM (PYL8) [%]	pIC50 (PYL9; Table VII, read-out: PP2C Dose Curves PYL9 (IC50))	remaining activity at 25 µM (PYL9) [%]	minimal effective concentration ([1]; Arabidopsis thaliana) [µM]	Hypocotyl Growth Inhibition [1] [µM]	PP2C Activity (25 μm) PYL4 (PYL4) [%]	PP2C Activity (25 μm) PYL5 (PYL5) [%]	PP2C Activity (25 μm) PYL8 (PYL8) [%]	PP2C Activity (25 μm) PYL9 (PYL9) [%]	minimal effective concentration [1] [µM]
N#Cc1ccc(CS(=O)(=O)NC(=O)C2(c3cccc(F)c3)CC2)cc1 [Compound 46]	4.73	95	5.15	24	4.82	3.95	73	4.40	55	–	–	–	–	–	–	–
CC1(C(=O)NS(=O)(=O)Cc2ccc(C#N)cc2)CCCc2ccccc21 (stereo not drawn) [Compound 61]	–	91	–	16	–	–	75	–	68	50	50	–	–	–	–	–
Cc1cccc(C2(C(=O)NS(=O)(=O)Cc3ccc(C#N)cc3)CC2)c1 [Compound 38]	–	–	–	–	–	–	–	–	–	–	50	92	41	77	66	50
N#Cc1ccc(CS(=O)(=O)NC(=O)C2(c3ccc(Cl)cc3)CCC2)cc1 [Compound 28]	–	–	–	–	–	–	–	–	–	–	10	96	65	55	37	10
